# Results published in patent US4797471A, “Peptide derivatives having an inhibitory action on hydroxylating enzymes, a process for their preparation, agents containing them, and their use” (Hoechst Aktiengesellschaft, priority 1985, dated 1989).
# pIC50: −log10 of the molar value.
# Columns and labels:
# [1] = target: Lysine hydroxylase; experiment: Enzyme test: hydroxylation of underhydroxylated collagen, lysine hydroxylase inhibition; type: biochemical; details: 50% inhibition of the enzyme reaction; Iron(II) ions, α-ketoglutarate and ascorbate
# Description: (§1) The inhibitory action of the substances according to the invention, for example on collagen biosynthesis, can be tested in an enzyme test in analogy to the method of B. Peterkovsky and R. DiBlasio, Anal. Biochem. 66, 279-286 (1975). This entails enzymatic hydroxylation of underhydroxylated collagen in the presence of IronlII) ions, α-ketoglutarate and ascorbate. The enzymes which can be used are prolyl 4-hydroxylase, prolyl 3-hydroxylase or lysl hydroxylase in a cell-free test medium. The inhibitory action can also be measured in cell or tissue culture and is reported as 50% inhibition of the enzyme reaction (IC50).
# [2] = target: Proline hydroxylase; experiment: Enzyme test: hydroxylation of underhydroxylated collagen, proline hydroxylase inhibition; type: biochemical; details: 50% inhibition of the enzyme reaction; Iron(II) ions, α-ketoglutarate and ascorbate
# Description: as §1
SMILES,pIC50 [1],pIC50 [2]
"CC(=O)N[C@@H](CCCNC(=O)c1cc(O)c(O)c(O)c1)C(=O)N1CCC[C@H]1C(=O)NCC(=O)O [Ac--Orn(3,4,5-Trihydroxybenzoyl)-Pro--Gly--OH]",5.10,4.54
"CC(=O)N[C@@H](CCCNC(=O)c1ccc(O)c(O)c1)C(=O)N1CCC[C@H]1C(=O)NCC(=O)O [Ac--Orn(3,4-Dihydroxybenzoyl)-Pro--Gly--OH]",5.15,4.14
"CC(=O)N[C@@H](CCCNC(=O)Cc1ccc(O)c(O)c1)C(=O)N1CCC[C@H]1C(=O)NCC(=O)O [Ac--Orn(3,4-Dihydroxyphenylacetyl)-Pro--Gly--OH]",4.43,3.85
"CC(=O)N1CCC[C@H]1C(=O)N[C@@H](CCCNC(=O)c1cc(O)c(O)c(O)c1)C(=O)NCC(=O)O [Ac--Pro--Orn(3,4,5-Trihydroxybenzoyl)-Gly--OH]",4.59,4.77
"CC(=O)N1CCC[C@H]1C(=O)N[C@@H](CCCNC(=O)Cc1ccc(O)c(O)c1)C(=O)NCC(=O)O [Ac--Pro--Orn(3,4-Dihydroxyphenylacetyl)-Gly--OH]",4.15,3.81
"CC(=O)N[C@@H](CCCNC(=O)c1cccc(O)c1O)C(=O)N1CCC[C@H]1C(=O)NCC(=O)O [Ac-Orn(2,3-dihydroxybenzoyl)-Pro-Gly-OH]",5.15,4.42
"CC(=O)N1CCC[C@H]1C(=O)N[C@@H](CCCNC(=O)c1ccc(O)c(O)c1)C(=O)NCC(=O)O [Ac-Pro-Orn(3,4-dihydroxybenzoyl)-Bly-OH]",4.41,4.30
